Results reported in patent US20150111815A1, “NOVEL CYCLOSPORIN DERIVATIVES FOR THE TREATMENT AND PREVENTION OF VIRAL INFECTIONS” (S&T Global Inc., priority 2011, published 2015).
*1 amine or outer side, *2 acyl side, *3 side chain or, on linkers, in order; H or OH if unused. Where a SMILES comes first, the peptide text is derived from it. [ ]: non-standard residue; d: D form. ξ: configuration not given here. MeBmt = C/C=C/C[C@@H](C)[C@@H](O)[C@H](NC)C(=O)O; X2 = C=CCOC(C)(C)C[C@@H](C(=O)[*:2])N(C)[*:1]; X1 = CCN(CC)CC[C@H](C(=O)[*:2])N(C)[*:1]; X3 = CN(C)CCC[C@H](C(=O)[*:2])N(C)[*:1]; dNMeDab(Me2) = CN[C@H](CCN(C)C)C(=O)O; NMeIle(3ξ) = CCC(C)[C@H](NC)C(=O)O; NMeL = CN[C@@H](CC(C)C)C(=O)O; NMeV = CN[C@H](C(=O)O)C(C)C; Abu = CC[C@H](N)C(=O)O

Tested on: HCV replicon in cell line ET (luc-ubi-neo/ET), Huh7 human hepatoma cells
Assay: HCV subgenomic replicon assay (luciferase end point)
Assay type: cell-based
Settings: Hepatitis C virus, Huh-7, read-out: Antiviral activity: IC50 (μM)
Experimental: The anti-HCV activity of cyclosporine derivatives were evaluated in the HCV subgenomic replicon assay. The assay use the cell line ET (luc-ubi-neo/ET), which is a Huh7 human hepatoma cell line harboring an HCV replicon with a stable luciferase (Luc) reporter. HCV RNA replication was assessed by quantifying HCV replicon-derived luciferase activity. The antiviral activity of cyclosporine analogs were evaluated after drug treatment, the EC 50 and EC 90 were determined in subsequent assessments by using the luciferase end point (Krieger, N., et al., 2001, J. Virol. 75, 4614-4624; Pietschmann, T., et al., 2002, J. Virol. 76, 4008-4021; each of which is incorporated herein by reference).

| Structure (SMILES) | IC50 [µM] |
| --- | --- |
| C/C=C/C[C@@H](C)[C@@H](O)[C@H]1C(=O)N[C@@H](CC)C(=O)N(C)[C@H](CCN(C)C)C(=O)N(C)[C@@H](CC(C)(C)O)C(=O)N[C@@H](C(C)C)C(=O)N(C)[C@@H](CC(C)C)C(=O)N[C@@H](C)C(=O)N[C@H](C)C(=O)N(C)[C@@H](CC(C)C)C(=O)N(C)[C@@H](CC(C)C)C(=O)N(C)[C@@H](C(C)C)C(=O)N1C [Example 20, [(R)-2-(N,N-Dimethylamino)ethyl-Sar]-3-[(γ-hydroxy)-NMeLeu]-4-cyclosporin] | < 0.25 |
| C/C=C/C[C@@H](C)[C@@H](O)[C@H]1C(=O)N[C@@H](CC)C(=O)N(C)[C@H](CCN(C)C)C(=O)N(C)[C@@H](CC(C)(C)OC)C(=O)N[C@@H](C(C)C)C(=O)N(C)[C@@H](CC(C)C)C(=O)N[C@@H](C)C(=O)N[C@H](C)C(=O)N(C)[C@@H](CC(C)C)C(=O)N(C)[C@@H](CC(C)C)C(=O)N(C)[C@@H](C(C)C)C(=O)N1C [Example 21, [(R)-2-(N,N-Dimethylamino)ethyl-Sar]-3-[(γ-methoxy)-NMeLeu]-4-cyclosporin] | < 0.25 |
| C=CCOC(C)(C)C[C@H]1C(=O)N[C@@H](C(C)C)C(=O)N(C)[C@@H](CC(C)C)C(=O)N[C@@H](C)C(=O)N[C@H](C)C(=O)N(C)[C@@H](CC(C)C)C(=O)N(C)[C@@H](CC(C)C)C(=O)N(C)[C@@H](C(C)C)C(=O)N(C)[C@@H]([C@H](O)[C@H](C)C/C=C/C)C(=O)N[C@@H](CC)C(=O)N(C)[C@H](CCN(C)C)C(=O)N1C [Example 22, [(R)-2-(N,N-Dimethylamino)ethyl-Sar]-3-[(γ-allyloxy)-NMeLeu]-4-cyclosporin] (cyclo(A[dA][NMeL][NMeL][NMeV][MeBmt][Abu][dNMeDab(Me2)][X2]V[NMeL])) | < 0.25 |
| C/C=C/C[C@@H](C)[C@@H](O)[C@H]1C(=O)N[C@@H](CC)C(=O)N(C)[C@H](CCN(C)C)C(=O)N(C)[C@@H](C(C)CC)C(=O)N[C@@H](C(C)C)C(=O)N(C)[C@@H](CC(C)C)C(=O)N[C@@H](C)C(=O)N[C@H](C)C(=O)N(C)[C@@H](CC(C)C)C(=O)N(C)[C@@H](CC(C)C)C(=O)N(C)[C@@H](C(C)C)C(=O)N1C (stereo partly drawn) [Example 24, [(R)-2-(N,N-Dimethylamino)ethyl-Sar]-3-[NMeIle]-4-cyclosporin] (cyclo(A[dA][NMeL][NMeL][NMeV][MeBmt][Abu][dNMeDab(Me2)][NMeIle(3ξ)]V[NMeL])) | < 0.25 |
| C/C=C/C[C@@H](C)[C@@H](O)[C@H]1C(=O)N[C@@H](CC)C(=O)N(C)[C@H](CCN(CC)CC)C(=O)N(C)[C@@H](CC(C)C)C(=O)N[C@@H](C(C)C)C(=O)N(C)[C@@H](CC(C)C)C(=O)N[C@@H](C)C(=O)N[C@H](C)C(=O)N(C)[C@@H](CC(C)C)C(=O)N(C)[C@@H](CC(C)C)C(=O)N(C)[C@@H](C(C)C)C(=O)N1C [Example 25, [(R)-2-(N,N-Diethylamino)ethyl-Sar]-3-cyclosporin] | < 0.25 |
| C/C=C/C[C@@H](C)[C@@H](O)[C@H]1C(=O)N[C@@H](CC)C(=O)N(C)[C@H](CCN(CC)CC)C(=O)N(C)[C@@H](CC(C)(C)O)C(=O)N[C@@H](C(C)C)C(=O)N(C)[C@@H](CC(C)C)C(=O)N[C@@H](C)C(=O)N[C@H](C)C(=O)N(C)[C@@H](CC(C)C)C(=O)N(C)[C@@H](CC(C)C)C(=O)N(C)[C@@H](C(C)C)C(=O)N1C [Example 26, [(R)-2-(N,N-Diethylamino)ethyl-Sar]-3-[(γ-hydroxy)-NMeLeu]-4-cyclosporin] | < 0.25 |
| C/C=C/C[C@@H](C)[C@@H](O)[C@H]1C(=O)N[C@@H](CC)C(=O)N(C)[C@H](CCN(CC)CC)C(=O)N(C)[C@@H](CC(C)(C)OC)C(=O)N[C@@H](C(C)C)C(=O)N(C)[C@@H](CC(C)C)C(=O)N[C@@H](C)C(=O)N[C@H](C)C(=O)N(C)[C@@H](CC(C)C)C(=O)N(C)[C@@H](CC(C)C)C(=O)N(C)[C@@H](C(C)C)C(=O)N1C [Example 27, [(R)-2-(N,N-Diethylamino)ethyl-Sar]-3-[(γ-methoxy)-NMeLeu]-4-cyclosporin] | < 0.25 |
| C=CCOC(C)(C)C[C@H]1C(=O)N[C@@H](C(C)C)C(=O)N(C)[C@@H](CC(C)C)C(=O)N[C@@H](C)C(=O)N[C@H](C)C(=O)N(C)[C@@H](CC(C)C)C(=O)N(C)[C@@H](CC(C)C)C(=O)N(C)[C@@H](C(C)C)C(=O)N(C)[C@@H]([C@H](O)[C@H](C)C/C=C/C)C(=O)N[C@@H](CC)C(=O)N(C)[C@H](CCN(CC)CC)C(=O)N1C [Example 28, [(R)-2-(N,N-Diethylamino)ethyl-Sar]-3-[(γ-allyloxy)-NMeLeu]-4-cyclosporin] (cyclo(A[dA][NMeL][NMeL][NMeV][MeBmt][Abu][X1][X2]V[NMeL])) | < 0.25 |
| C/C=C/C[C@@H](C)[C@@H](O)[C@H]1C(=O)N[C@@H](CC)C(=O)N(C)[C@H](CCN(CC)CC)C(=O)N(C)[C@@H](C(C)C)C(=O)N[C@@H](C(C)C)C(=O)N(C)[C@@H](CC(C)C)C(=O)N[C@@H](C)C(=O)N[C@H](C)C(=O)N(C)[C@@H](CC(C)C)C(=O)N(C)[C@@H](CC(C)C)C(=O)N(C)[C@@H](C(C)C)C(=O)N1C [Example 29, [(R)-2-(N,N-Diethylamino)ethyl-Sar]-3-[NMeVal]-4-cyclosporin] (cyclo(A[dA][NMeL][NMeL][NMeV][MeBmt][Abu][X1][NMeV]V[NMeL])) | < 0.25 |
| C/C=C/C[C@@H](C)[C@@H](O)[C@H]1C(=O)N[C@@H](CC)C(=O)N(C)[C@H](CCN(CC)CC)C(=O)N(C)[C@@H](C(C)CC)C(=O)N[C@@H](C(C)C)C(=O)N(C)[C@@H](CC(C)C)C(=O)N[C@@H](C)C(=O)N[C@H](C)C(=O)N(C)[C@@H](CC(C)C)C(=O)N(C)[C@@H](CC(C)C)C(=O)N(C)[C@@H](C(C)C)C(=O)N1C (stereo partly drawn) [Example 30, [(R)-2-(N,N-Diethylamino)ethyl-Sar]-3-[NMeIle]-4-cyclosporin] (cyclo(A[dA][NMeL][NMeL][NMeV][MeBmt][Abu][X1][NMeIle(3ξ)]V[NMeL])) | < 0.25 |
| C/C=C/C[C@@H](C)[C@@H](O)[C@H]1C(=O)N[C@@H](CC)C(=O)N(C)[C@@H](CCN(C)C)C(=O)N(C)[C@@H](CC(C)(C)O)C(=O)N[C@@H](C(C)C)C(=O)N(C)[C@@H](CC(C)C)C(=O)N[C@@H](C)C(=O)N[C@H](C)C(=O)N(C)[C@@H](CC(C)C)C(=O)N(C)[C@@H](CC(C)C)C(=O)N(C)[C@@H](C(C)C)C(=O)N1C [Example 32, [(S)-2-(N,N-Dimethylamino)ethyl-Sar]-3-[(γ-hydroxy)-NMeLeu]-4-cyclosporin] | < 5 |
| C/C=C/C[C@@H](C)[C@@H](O)[C@H]1C(=O)N[C@@H](CC)C(=O)N(C)[C@@H](CCN(CC)CC)C(=O)N(C)[C@@H](CC(C)(C)O)C(=O)N[C@@H](C(C)C)C(=O)N(C)[C@@H](CC(C)C)C(=O)N[C@@H](C)C(=O)N[C@H](C)C(=O)N(C)[C@@H](CC(C)C)C(=O)N(C)[C@@H](CC(C)C)C(=O)N(C)[C@@H](C(C)C)C(=O)N1C [Example 33, [(S)-2-(N,N-Diethylamino)ethyl-Sar]-3-[(γ-hydroxy)-NMeLeu]-4-Cyclosporin] | < 5 |
| C/C=C/C[C@@H](C)[C@@H](O)[C@H]1C(=O)N[C@@H](CC)C(=O)N(C)[C@H](CCCN(C)C)C(=O)N(C)[C@@H](CC(C)(C)O)C(=O)N[C@@H](C(C)C)C(=O)N(C)[C@@H](CC(C)C)C(=O)N[C@@H](C)C(=O)N[C@H](C)C(=O)N(C)[C@@H](CC(C)C)C(=O)N(C)[C@@H](CC(C)C)C(=O)N(C)[C@@H](C(C)C)C(=O)N1C [Example 37, [(R)-3-(N,N-Dimethylamino)propyl-Sar]-3-[(γ-hydroxy)-NMeLeu]-4-cyclosporin] | < 0.25 |
| C/C=C/C[C@@H](C)[C@@H](O)[C@H]1C(=O)N[C@@H](CC)C(=O)N(C)[C@H](CCCN(C)C)C(=O)N(C)[C@@H](CC(C)(C)OC)C(=O)N[C@@H](C(C)C)C(=O)N(C)[C@@H](CC(C)C)C(=O)N[C@@H](C)C(=O)N[C@H](C)C(=O)N(C)[C@@H](CC(C)C)C(=O)N(C)[C@@H](CC(C)C)C(=O)N(C)[C@@H](C(C)C)C(=O)N1C [Example 39, [(R)-3-(N,N-Dimethylamino)propyl-Sar]-3-[(γ-methoxy)-NMeLeu]-4-cyclosporin] | < 0.25 |
| C=CCOC(C)(C)C[C@H]1C(=O)N[C@@H](C(C)C)C(=O)N(C)[C@@H](CC(C)C)C(=O)N[C@@H](C)C(=O)N[C@H](C)C(=O)N(C)[C@@H](CC(C)C)C(=O)N(C)[C@@H](CC(C)C)C(=O)N(C)[C@@H](C(C)C)C(=O)N(C)[C@@H]([C@H](O)[C@H](C)C/C=C/C)C(=O)N[C@@H](CC)C(=O)N(C)[C@H](CCCN(C)C)C(=O)N1C [Example 41, [(R)-3-(N,N-Dimethylamino)propyl-Sar]-3-[(γ-allyloxy)-NMeLeu]-4-cyclosporin] (cyclo(A[dA][NMeL][NMeL][NMeV][MeBmt][Abu][X3][X2]V[NMeL])) | < 0.25 |
| C/C=C/C[C@@H](C)[C@@H](O)[C@H]1C(=O)N[C@@H](CC)C(=O)N(C)[C@H](CCCN(C)C)C(=O)N(C)[C@@H](C(C)C)C(=O)N[C@@H](C(C)C)C(=O)N(C)[C@@H](CC(C)C)C(=O)N[C@@H](C)C(=O)N[C@H](C)C(=O)N(C)[C@@H](CC(C)C)C(=O)N(C)[C@@H](CC(C)C)C(=O)N(C)[C@@H](C(C)C)C(=O)N1C [Example 43, [(R)-3-(N,N-Dimethylamino)propyl-Sar]-3-[NMeVal]-4-cyclosporin] (cyclo(A[dA][NMeL][NMeL][NMeV][MeBmt][Abu][X3][NMeV]V[NMeL])) | < 0.25 |
| C/C=C/C[C@@H](C)[C@@H](O)[C@H]1C(=O)N[C@@H](CC)C(=O)N(C)[C@H](CCCN(C)C)C(=O)N(C)[C@@H](C(C)CC)C(=O)N[C@@H](C(C)C)C(=O)N(C)[C@@H](CC(C)C)C(=O)N[C@@H](C)C(=O)N[C@H](C)C(=O)N(C)[C@@H](CC(C)C)C(=O)N(C)[C@@H](CC(C)C)C(=O)N(C)[C@@H](C(C)C)C(=O)N1C (stereo partly drawn) [Example 45, [(R)-3-(N,N-Dimethylamino)propyl-Sar]-3-[NMeIle]-4-cyclosporin] (cyclo(A[dA][NMeL][NMeL][NMeV][MeBmt][Abu][X3][NMeIle(3ξ)]V[NMeL])) | < 0.25 |
